Assay results taken from the NIST ThermoML archive (doi:10.1021/acs.jced.7b00035).
Where “and” joins values, the source holds several entries; their conditions need not be identical. Identical values can stand only once.

How the values were obtained:
[1] = excess molar enthalpy (molar enthalpy of mixing); xn = mol fraction of the nth substance listed; details: 100 kPa, Liquid, Flow calorimetry
[2] = xn = mol fraction of the nth substance listed; details: 100 kPa, Liquid, Vibrating tube method

CCCC(C)=O [pentan-2-one] + O
Details | excess molar enthalpy, [1] | mass density, [2]
288.15 K, x1 = 0.000842 | -0.0106 kJ/mol and -0.0107 kJ/mol | 998.562 kg/m3 and 998.56 kg/m3
288.15 K, x1 = 0.001683 | -0.0212 kJ/mol | 998.027 kg/m3 and 998.026 kg/m3
288.15 K, x1 = 0.002522 | -0.0315 kJ/mol and -0.0314 kJ/mol | 997.512 kg/m3 and 997.513 kg/m3
288.15 K, x1 = 0.00336 | -0.0413 kJ/mol | 997.021 kg/m3
288.15 K, x1 = 0.003361 | -0.0415 kJ/mol | 997.002 kg/m3
288.15 K, x1 = 0.004197 | -0.0511 kJ/mol | 996.522 kg/m3
288.15 K, x1 = 0.004198 | -0.0515 kJ/mol | 996.499 kg/m3
288.15 K, x1 = 0.005032 | -0.0612 kJ/mol | 996.016 kg/m3
288.15 K, x1 = 0.005035 | -0.0613 kJ/mol | 996.015 kg/m3
298.15 K, x1 = 0.000841 | -0.00867 kJ/mol | 996.472 kg/m3
298.15 K, x1 = 0.000842 | -0.00867 kJ/mol | 996.472 kg/m3
298.15 K, x1 = 0.001681 | -0.0172 kJ/mol | 995.903 kg/m3
298.15 K, x1 = 0.001682 | -0.0172 kJ/mol | 995.902 kg/m3
298.15 K, x1 = 0.00252 | -0.0257 kJ/mol | 995.346 kg/m3
298.15 K, x1 = 0.002521 | -0.0258 kJ/mol | 995.334 kg/m3
298.15 K, x1 = 0.003357 | -0.0338 kJ/mol | 994.797 kg/m3
298.15 K, x1 = 0.003358 | -0.0335 kJ/mol | 994.811 kg/m3
298.15 K, x1 = 0.004193 | -0.0418 kJ/mol and -0.0416 kJ/mol | 994.25 kg/m3 and 994.26 kg/m3
298.15 K, x1 = 0.005028 | -0.0496 kJ/mol | 993.716 kg/m3
298.15 K, x1 = 0.005029 | -0.0497 kJ/mol | 993.707 kg/m3
308.15 K, x1 = 0.000841 | -0.00681 kJ/mol | –
308.15 K, x1 = 0.000842 | -0.00685 kJ/mol | 993.42 kg/m3
308.15 K, x1 = 0.001681 | -0.0135 kJ/mol | 992.814 kg/m3
308.15 K, x1 = 0.001683 | -0.0135 kJ/mol | 992.818 kg/m3
308.15 K, x1 = 0.00252 | -0.0199 kJ/mol | 992.226 kg/m3
308.15 K, x1 = 0.002522 | -0.0198 kJ/mol | 992.228 kg/m3
308.15 K, x1 = 0.003358 | -0.0262 kJ/mol | 991.617 kg/m3
308.15 K, x1 = 0.00336 | -0.0261 kJ/mol | 991.643 kg/m3
308.15 K, x1 = 0.004194 | -0.0324 kJ/mol | 991.052 kg/m3
308.15 K, x1 = 0.004197 | -0.0324 kJ/mol | 991.045 kg/m3
308.15 K, x1 = 0.005031 | -0.0384 kJ/mol | 990.475 kg/m3
308.15 K, x1 = 0.005034 | -0.0383 kJ/mol | 990.474 kg/m3
318.15 K, x1 = 0.00084 | -0.00492 kJ/mol | 989.57 kg/m3
318.15 K, x1 = 0.001679 | -0.00971 kJ/mol | 988.929 kg/m3
318.15 K, x1 = 0.002517 | -0.0143 kJ/mol | 988.307 kg/m3
318.15 K, x1 = 0.003354 | -0.0188 kJ/mol | 987.666 kg/m3
318.15 K, x1 = 0.004189 | -0.0231 kJ/mol | 987.058 kg/m3
318.15 K, x1 = 0.005024 | -0.0272 kJ/mol | 986.447 kg/m3

CC(=O)CC(C)C [4-methylpentan-2-one] + O
Details | excess molar enthalpy, [1] | mass density, [2]
288.15 K, x1 = 0.000573 | -0.00724 kJ/mol | 998.669 kg/m3
288.15 K, x1 = 0.000574 | -0.00727 kJ/mol | 998.655 kg/m3
288.15 K, x1 = 0.00086 | – | 998.405 kg/m3 and 998.422 kg/m3
288.15 K, x1 = 0.001146 | -0.0143 kJ/mol | 998.224 kg/m3
288.15 K, x1 = 0.001147 | -0.0144 kJ/mol | 998.21 kg/m3
288.15 K, x1 = 0.001432 | -0.018 kJ/mol | 997.995 kg/m3
288.15 K, x1 = 0.001434 | -0.0178 kJ/mol | 998.001 kg/m3
288.15 K, x1 = 0.001718 | -0.0214 kJ/mol | 997.779 kg/m3
288.15 K, x1 = 0.00172 | -0.0213 kJ/mol | 997.788 kg/m3
288.15 K, x1 = 0.002004 | -0.0247 kJ/mol | 997.592 kg/m3
288.15 K, x1 = 0.002006 | -0.0247 kJ/mol | 997.567 kg/m3
298.15 K, x1 = 0.000574 | -0.00565 kJ/mol and -0.0056 kJ/mol | 996.572 kg/m3 and 996.58 kg/m3
298.15 K, x1 = 0.00086 | -0.00836 kJ/mol | 996.345 kg/m3
298.15 K, x1 = 0.000861 | -0.00851 kJ/mol | 996.319 kg/m3
298.15 K, x1 = 0.001146 | -0.0113 kJ/mol | 996.114 kg/m3
298.15 K, x1 = 0.001148 | -0.0113 kJ/mol | 996.078 kg/m3
298.15 K, x1 = 0.001433 | -0.0138 kJ/mol | 995.875 kg/m3
298.15 K, x1 = 0.001435 | -0.014 kJ/mol | 995.871 kg/m3
298.15 K, x1 = 0.001718 | -0.0165 kJ/mol | 995.624 kg/m3
298.15 K, x1 = 0.001721 | -0.0166 kJ/mol | 995.64 kg/m3
298.15 K, x1 = 0.002004 | -0.0192 kJ/mol | 995.417 kg/m3
298.15 K, x1 = 0.002007 | -0.0191 kJ/mol | 995.402 kg/m3
308.15 K, x1 = 0.000573 | -0.00405 kJ/mol | 993.534 kg/m3 and 993.533 kg/m3
308.15 K, x1 = 0.000859 | -0.00615 kJ/mol and -0.00616 kJ/mol | 993.283 kg/m3 and 993.282 kg/m3
308.15 K, x1 = 0.001145 | -0.00809 kJ/mol and -0.00802 kJ/mol | 993.03 kg/m3 and 993.053 kg/m3
308.15 K, x1 = 0.001431 | -0.01 kJ/mol and -0.00997 kJ/mol | 992.791 kg/m3 and 992.795 kg/m3
308.15 K, x1 = 0.001716 | -0.0119 kJ/mol | 992.542 kg/m3
308.15 K, x1 = 0.001717 | -0.012 kJ/mol | 992.525 kg/m3
308.15 K, x1 = 0.002002 | -0.0138 kJ/mol | 992.3 kg/m3
308.15 K, x1 = 0.002003 | -0.0138 kJ/mol | 992.285 kg/m3
318.15 K, x1 = 0.000573 | -0.00411 kJ/mol and -0.00265 kJ/mol | –
318.15 K, x1 = 0.000859 | -0.00389 kJ/mol and -0.00384 kJ/mol | 989.411 kg/m3 and 989.421 kg/m3
318.15 K, x1 = 0.001145 | -0.0051 kJ/mol | 989.156 kg/m3
318.15 K, x1 = 0.001146 | -0.0051 kJ/mol | 989.147 kg/m3
318.15 K, x1 = 0.001431 | -0.00624 kJ/mol | 988.905 kg/m3
318.15 K, x1 = 0.001432 | -0.00618 kJ/mol | 988.91 kg/m3
318.15 K, x1 = 0.001717 | -0.00748 kJ/mol | 988.633 kg/m3
318.15 K, x1 = 0.001718 | -0.00743 kJ/mol | 988.636 kg/m3
318.15 K, x1 = 0.002003 | -0.00855 kJ/mol | 988.402 kg/m3
318.15 K, x1 = 0.002004 | -0.00844 kJ/mol | 988.379 kg/m3
